# According to patent publication US20230348447A1, “OXAZOLIDINONE COMPOUNDS, LIPOSOME COMPOSITIONS COMPRISING OXAZOLIDINONE COMPOUNDS AND METHOD OF USE THEREOF” (priority 2020, published 2023):
# Where “and” joins values, the source holds several entries; their conditions need not be identical. Identical values can stand only once. Like-named read-outs stand apart in the source and are kept apart here.
# Experiments:
# M.tb Erdman = experiment: Broth microdilution MIC with Alamar blue endpoint (MABA) / OD600; assay type: cell-based, Mycobacterium tuberculosis
# M.tb H37Rv = experiment: as above; assay type: cell-based, Mycobacterium tuberculosis
# M. Tuberculosis Erdman [1] = experiment: Efficacy of monotherapy in chronic Balb/c model of tuberculosis (lung and spleen CFU); assay type: in vivo, Mycobacterium tuberculosis (in Balb/c mice)
# [2] = male, Sprague-Dawley, rat, in vivo, po, 50 mg/kg
# [3] = male, Sprague-Dawley, rat, in vivo, 50 mg/kg, 8 weeks
# Description: The control group was injected once weekly for 8 weeks with an equal volume of HEPES buffered saline (HBS, pH 7). Before the endpoint of the study animals were humanely euthanized by exsanguination from the abdominal aorta following isoflurane anesthesia. Blood and tissue samples were collected for evaluation of clinical pathology parameters. Representative samples of tissues were collected and preserved in 10% neutral buffered, embedded in paraffin, sectioned, mounted on glass slides, stained with hematoxylin and eosin, and evaluated for histopathology by a board-certified veterinary pathologist.
# The following parameters and end points were also evaluated: mortality and moribundity check, clinical observations, body weights, food consumption, nerve conduction velocity (NCV) and muscle action potential (MAP), functional observation battery (FOB).
# M. Tuberculosis Erdman [4] = conditions: eight weeks, Balb/c and C3HeB/FeJ mice; cited from earlier work
# in vivo = conditions: male, Sprague-Dawley, rat
# [5] = Liposome loading / encapsulation efficiency (General protocol); conditions: for maximum drug load: HSPC:Chol 3:2, 0.5 mol% PEG-DSG (Example 14)
# [6] = Aqueous solubility (visually clear solutions); assay type: physicochemical
# Description: Working stocks of the compounds were prepared as follows: to an aliquot of a compound (free base) in a powder form 1-1.5 equivalents of HCl in the form of 1 N aqueous solution was added, and the mixture was vortexed until homogeneity. To the resulting cake or syrup, water was added typically to the final 10 mg/ml, and complete dissolution was observed. In some instances, 0.95 equivalents of HCl were added to the free base form of the drug, and 20 mg/ml stock solution was prepared.
# Aqueous solubility of the compounds of the present disclosure is illustrated by the following observations of obtaining visually clear solutions: […]
# [7] = test system: mitochondrial protein synthesis (COX-1/SDH-A ratio) in H9C2 rat heart myoblast cells; experiment: Mitochondrial protein synthesis inhibition (MitoBiogenesis in-cell ELISA, COX-1/SDH-A); assay type: cell-based; conditions: 120 h, five days, read-out: MPS IC50
# M.avium = experiment: MIC in nontuberculosis mycobacteria (microbroth dilution, resazurin); assay type: cell-based, Mycobacterium avium; conditions: for MIC: Mycobacterium avium
# M. chelonae = experiment: as above; assay type: cell-based, Mycobacterium chelonae; conditions: Mycobacteroides chelonae
# M. abscessus = experiment: as above; assay type: cell-based, Mycobacterium abscessus; conditions: Mycobacteroides abscessus
# M. kansasii = experiment: as above; assay type: cell-based; conditions: Mycobacterium kansasii
# M. massiliense = experiment: as above; assay type: cell-based, Mycobacterium massiliense
# MRSA ATCC BAA-1556 [8] = conditions: cited from earlier work
# MRSA ATCC BAA-1556 [9] = experiment: MIC against methicillin resistant Staphylococcus aureus (MRSA)
# MRSA ATCC 43300 = experiment: as above; conditions: read-out: MRSA MIC, ATCC 43300
# MRSA 880 NR-49120 = experiment: as above; conditions: read-out: MRSA MIC, 880 NR-49120
# [10] = test system: African green monkey kidney (Vero; ATCC # CCL81) cells; experiment: In vitro cytotoxicity (PrestoBlue cell viability), Vero; assay type: cell-based; conditions: Chlorocebus sabaeus, Vero, 72 h, read-out: Cell viability IC50, VERO
# [11] = test system: human hepatocyte/liver (HepG2; ATCC #HB8065) cells; experiment: In vitro cytotoxicity (PrestoBlue cell viability), HepG2; assay type: cell-based; conditions: Homo sapiens, HepG2, 72 h, read-out: Cell viability IC50, HepG2
# [12] = test system: M. Tuberculosis Erdman or H37Rv vs VERO or HepG2 cells; experiment: Selectivity Index (mammalian cell IC50 / bacterial MIC); set-up: species or system Mycobacterium tuberculosis
# [13] = In vitro burst release of liposomal drug in plasma, human; conditions: mouse or human plasma, 20 min 37° C., 0.5 M AS liposomes, 40-65 mol% Chol (FIG. 5A, 5B)
# Description: The plasma was thawed, if necessary, adjusted to pH 7.4 with 1 N HCl, and sequentially filtered through glass microfiber filters (GF/C), 1 µm polyethersulfone (PES), and 0.22 µm PES filters. Plasma (80 µl) was mixed with liposomal drug formulations (20 µl) in a 0.5 ml Eppendorf tube. The mixture was subsequently incubated for 20 min at 37° C. and then put into chilled water.
# Incubation time was 20 min.
# [14] = from drugbank.ca; cited from earlier work
# [15] = Mycobacterium tuberculosis, ERDMAN; read-out: Mycobacterium tuberculosis MIC, Erdman
# [16] = Mycobacterium tuberculosis; M. tuberculosis Erdman / H37Rv, strains not separated; read-out: MIC
# [17] = Mycobacterium tuberculosis, H37RV; as determined in Example 2; read-out: MIC (H37Rv)
# [18] = Mycobacterium tuberculosis, H37RV; read-out: Mycobacterium tuberculosis MIC, H37Rv
# [19] = Balb/c mice, 50 mg/kg, q1x5, oral gavage
# [20] = Balb/c mice, 100 mg/kg, q1x5, oral gavage
# [21] = M. avium sbsp. avium strain 2285 R, read-out: MIC
# [22] = M. kansasii strain 662, read-out: MIC
# [23] = read-out: MRSA MIC, ATCC BAA-1556
compound,measurement,setting,value
CC(=O)NC[C@H]1CN(c2ccc(N3CCOCC3)c(F)c2)C(=O)O1 [Linezolid],MIC,M.tb Erdman; [15],1 µg/mL
same,MIC,M.tb Erdman; [16],2 µg/mL
same,MIC,M.tb H37Rv; [17],1 µg/mL
same,MIC,M.tb H37Rv; [18],1 µg/mL
same,"Lung Log CFU, 4 week",M. Tuberculosis Erdman [1]; [19],4.61 ± 0.31 Log CFU
same,"Spleen Log CFU, 4 week",M. Tuberculosis Erdman [1]; [19],4.32 ± 0.28 Log CFU
same,"Lung Log CFU, 2 week",M. Tuberculosis Erdman [1]; [20],5.58 ± 0.10 Log CFU
same,"Lung Log CFU, 4 week",M. Tuberculosis Erdman [1]; [20],4.17 ± 0.21 Log CFU
same,"Lung Log CFU, 8 week",M. Tuberculosis Erdman [1]; [20],2.45 ± 0.37 Log CFU
same,"Spleen Log CFU, 2 week",M. Tuberculosis Erdman [1]; [20],4.53 ± 0.25 Log CFU
same,"Spleen Log CFU, 4 week",M. Tuberculosis Erdman [1]; [20],3.90 ± 0.28 Log CFU
same,log10 CFU in lungs,"M. Tuberculosis Erdman [1]; eight weeks, linezolid 100 mg/kg, detection limit 1.13",2.45 log10 CFU
same,"Log10 CFU reduction, lungs","M. Tuberculosis Erdman [1]; two weeks, Ls-AKG28 50 mg/kg twice weekly or 100 mg/kg once weekly, linezolid 100 mg/kg (q1x5)",less than 0.15 Log10 CFU
same,AUC0-inf,[2],373.53 µg·h/mL
same,Clearance,[2],2.231 mL/min/kg
same,T ½,[2],11.86 h
same,Vd,[2],"2,291.26 mL/kg"
same,"Kidney: Vacuolation, mesangial cell, glomerular, Minimal (animals)",[3],0
same,"Kidney: Vacuolation, mesangial cell, glomerular, number of animals with the finding",[3],(0)
same,"Liver: Degeneration, hepatocellular, centrilobular, Mild (animals)",[3],0
same,"Liver: Degeneration, hepatocellular, centrilobular, Minimal (animals)",[3],0
same,"Liver: Degeneration, hepatocellular, centrilobular, number of animals with the finding",[3],(0)
same,"Liver: Single cell necrosis, centrilobular, Minimal (animals)",[3],2
same,"Liver: Single cell necrosis, centrilobular, number of animals with the finding",[3],(2)
same,"Spleen: Accumulation, basophilic material, Mild (animals)",[3],0
same,"Spleen: Accumulation, basophilic material, Minimal (animals)",[3],0
same,"Spleen: Accumulation, basophilic material, number of animals with the finding",[3],(0)
same,"Spleen: Vacuolation, macrophages, Mild (animals)",[3],0
same,"Spleen: Vacuolation, macrophages, Minimal (animals)",[3],0
same,"Spleen: Vacuolation, macrophages, Moderate (animals)",[3],0
same,"Spleen: Vacuolation, macrophages, number of animals with the finding",[3],(0)
same,"log10 CFU counts, monotherapy (Lanoix et al. 2015)",M. Tuberculosis Erdman [4],4-6 log10 CFU
same,Vd,in vivo,2.29 L/kg
same,AUC,"in vivo; po, 50 mg/kg",282 µg·h/mL
same,AUC0-inf,"in vivo; po, 50 mg/kg",374 µg·h/mL
same,AUC(0-t),"in vivo; po, 50 mg/kg",282 µg·h/mL
same,Cmax,"in vivo; po, 50 mg/kg",26700 ng/mL
same,Tmax,"in vivo; po, 50 mg/kg",1 h
same,half-life,"in vivo; po, 50 mg/kg",11.9 h
same,EE,"[5]; HSPC, 5 mol% PEG-lipid, 40-65 mol% Chol, DL0 250 (AKG-28) or 500 (AKG-38)",less than 5%
"Cn1nnc(-c2ccc(-c3ccc(N4C[C@H](CO)OC4=O)cc3F)cn2)n1 [Tedizolid, reference compound]",MIC,M.tb Erdman; [15],0.25 µg/mL
same,MIC,M.tb Erdman; [16],0.25 µg/mL
same,MIC,M.tb H37Rv; [17],0.25 µg/mL
same,MIC,M.tb H37Rv; [18],0.25 µg/mL
same,solubility in water for gradient-assisted liposome loading,[6],not soluble enough in water
same,IC50,[7],0.143 µg/mL
same,MIC,M.avium; [21],0.25 µg/mL
same,MIC,"M.avium; M. avium sbsp. avium strain 2285 S, read-out: MIC",0.25 µg/mL
same,MIC,"M.avium; M. avium sbsp. avium strain 3993, read-out: MIC",0.25 µg/mL
same,MIC,"M. chelonae; M. chelonae strain 49, read-out: MIC",0.25 µg/mL
same,MIC,"M. chelonae; M. chelonae strain 69, read-out: MIC",2 µg/mL
same,MIC,M. chelonae; M. chelonae strain 35752,0.125 µg/mL
same,MIC,"M. abscessus; M. abscessus sbsp. abscessus strain 21, read-out: MIC",0.5 µg/mL
same,MIC,"M. abscessus; M. abscessus sbsp. abscessus strain 1513, read-out: MIC",4 µg/mL
same,MIC,"M. abscessus; M. abscessus sbsp. abscessus strain 1948, read-out: MIC",0.5 µg/mL
same,MIC,M. kansasii,0.125 µg/mL
same,MIC,M. kansasii; [22],> 32 µg/mL
same,MIC,"M. kansasii; M. kansasii strain 732, read-out: MIC",0.25 µg/mL
same,MIC,"M. kansasii; M. kansasii strain 824, read-out: MIC",0.25 µg/mL
same,MIC,"M. kansasii; M. kansasii strain MK13D6, read-out: MIC",0.25 µg/mL
same,MIC,M. massiliense; M. massiliense strain M154,0.06 µg/mL
same,activity relative to AKG-28 and AKG-38,"M. massiliense; M. massiliense, three strains",more active in all three strains evaluated
same,MIC,"M. massiliense; Mycobacteroides abscessus, CIP108297, M. massiliense strain CIP 108297, read-out: MIC",0.25 µg/mL
same,MIC,"M. massiliense; Mycobacteroides abscessus, M. massiliense strain CRM0019, read-out: MIC",0.06 µg/mL
same,"MRSA MIC described in U.S. Pat. No. 7,816,379",MRSA ATCC BAA-1556 [8],0.5 µg/mL
same,MIC,MRSA ATCC BAA-1556 [9]; read-out: MRSA MIC,0.206 to 0.617 µg/mL
same,MIC,MRSA ATCC BAA-1556 [9]; [23],0.617 µg/mL
same,MIC,MRSA ATCC 43300,0.617 µg/mL
same,MIC,MRSA 880 NR-49120,0.206 µg/mL
CN(C)CCn1nnc(-c2ccc(-c3ccc(N4C[C@H](CN)OC4=O)cc3F)cn2)n1.Cl [AKG-28],fold more potent than linezolid in killing M. Tuberculosis in vitro,M.tb Erdman; Erdmann strain,33 fold
same,MIC,"M.tb Erdman; Mycobacterium tuberculosis, ERDMAN, read-out: Mycobacterium tuberculosis MIC, Erdman",0.03 µg/mL
same,MIC,"M.tb H37Rv; Mycobacterium tuberculosis, H37RV, read-out: MIC (H37Rv)",0.015 µg/mL
same,MIC,"M.tb H37Rv; Mycobacterium tuberculosis, H37RV, read-out: Mycobacterium tuberculosis MIC, H37Rv",0.015 µg/mL
same,IC50,[10],83 µg/mL
same,IC50,[11],13.4 µg/mL
same,Selectivity Index (SI) Erd/HepG2,[12],446.7
same,Selectivity Index (SI) Erd/VERO,[12],2766.7
same,Concentration % (w/w) of free base (visually clear solution),"[6]; aqueous, 1 N HCl and/or water added",7.3 % (w/w)
same,IC50,[7],0.411 µg/mL
same,potency relative to tedizolid in NTM species and strains,"M.avium; M.avium, M. chelonae, M. abscessus and M. kansasii",generally more potent than tedizolid
same,MIC,M.avium; [21],0.06 µg/mL
same,MIC,M.avium; M. avium sbsp. avium strain 2285 S,0.125 µg/mL
same,MIC,M.avium; M. avium sbsp. avium strain 3993,0.125 µg/mL
same,MIC,M. chelonae; M. chelonae strain 49,0.06 µg/mL
same,MIC,M. chelonae; M. chelonae strain 69,0.5 µg/mL
same,MIC,M. chelonae; M. chelonae strain 35752,0.125 µg/mL
same,MIC,M. abscessus; M. abscessus sbsp. abscessus strain 21,0.25 µg/mL
same,MIC,M. abscessus; M. abscessus sbsp. abscessus strain 1513,32 µg/mL
same,MIC,M. abscessus; M. abscessus sbsp. abscessus strain 1948,0.125 µg/mL
same,MIC,M. kansasii,0.125 µg/mL
same,MIC,M. kansasii; [22],> 32 µg/mL
same,MIC,M. massiliense; Mycobacteroides abscessus,0.25 µg/mL
same,MIC,"M. massiliense; Mycobacteroides abscessus, CIP108297",1 µg/mL
same,burst release phenomenon in plasma in vitro,[13],"observed in human plasma for the formulations containing 40 mol.% cholesterol, but not for the formulations with 45 mol.% or more of cholesterol"
same,MIC,MRSA ATCC BAA-1556 [9]; read-out: MRSA MIC,> 50 µg/mL
same,MIC,MRSA ATCC BAA-1556 [9]; [23],> 50 µg/mL
same,MIC,MRSA ATCC 43300,> 50 µg/mL
same,MIC,MRSA 880 NR-49120,> 50 µg/mL
same,maximum drug load,[5]; 0.5 M AS,404-424 g/mol PhL
same,loading efficiency,"[5]; 0.5 M AS, at drug loads of 302 (AKG-28) and 387-764 (AKG-38) g/mol PhL",quantitative loading
same,maximum drug load,[5]; 1 N TEA-SOS,315-328 g/mol PhL
same,maximum loading efficiency,"[5]; 1 N TEA-SOS, at drug load 250 (AKG-28) and 400-777 (AKG-38) g/mol PhL",83.5%
same,liposome aggregation during drug loading,"[5]; 30 mol% cholesterol, 1 N TEA-SOS, AKG-28: 5 mol% PEG-DSG or PEG-DSPE, AKG-38: 5 mol% PEG-DSPE",irreversibly aggregated during the drug loading
same,loading efficiency (from unencapsulated drug in pre-concentration diafiltrate),"[5]; scaled-up lots, HSPC:Chol:PEG-DSPE 45:55:2.25, 0.5 M AS, DL 250 (AKG-28) or 450 (AKG-38) g/mol",99.1% and 99.3%
"CC(=O)NC[C@H]1CN(c2ccc(N3CCSCC3)c(F)c2)C(=O)O1 [Sutezolid, reference compound]",MIC,M.tb Erdman; [15],0.5 µg/mL
same,MIC,M.tb H37Rv; [18],0.5 µg/mL
same,known aqueous solubility,[14],237 µg/mL
